In ChEMBL document CHEMBL2401690, “Discovery of RG7388, a potent and selective p53-MDM2 inhibitor in clinical development” (J Med Chem, 2013):

How the values were obtained:
RKO = experiment: cells; conditions: Homo sapiens
Description: Cytotoxicity against human RKO cells expressing wild type p53 assessed as growth inhibition by MTT assay

HCT-116 = experiment: cells; conditions: Homo sapiens
Description: Cytotoxicity against human HCT116 cells expressing wild type p53 assessed as growth inhibition by MTT assay

[1] = Apparent terminal half-life in C57 mouse at 5 mg/kg, iv; assay type: ADME, organism-based; set-up: dose 5 mg/kg, route intravenous; conditions: in vivo, read-out: betat1/2(app) (converted)
SW480 = experiment: cells; conditions: Homo sapiens
Description: Cytotoxicity against human SW480 cells expressing p53 mutant assessed as growth inhibition by MTT assay

MDA-MB-435 = experiment: cells; conditions: Homo sapiens
Description: Cytotoxicity against human MDA-MB-435 cells expressing p53 mutant assessed as growth inhibition by MTT assay

[2] = Oral bioavailability in C57 mouse at 50 mg/kg; assay type: ADME, organism-based; conditions: in vivo
[3] = Cmax in C57 mouse at 50 mg/kg, po; assay type: ADME, organism-based; set-up: dose 50 mg/kg, route oral; conditions: in vivo
[4] = Total plasma clearance in C57 mouse at 5 mg/kg, iv; assay type: ADME, organism-based; set-up: dose 5 mg/kg, route intravenous
[5] = Clearance in human liver microsomes at […] by LC-MS/MS analysis; assay type: ADME, Microsome
SJSA-1 [6] = experiment: cells; conditions: Homo sapiens
Description: Cytotoxicity against human SJSA1 cells expressing wild type p53 assessed as growth inhibition by MTT assay

[7] = Oral bioavailability in C57 mouse at 20 mg/kg; assay type: ADME, organism-based; conditions: in vivo
[8] = Cmax in C57 mouse at 20 mg/kg, po; assay type: ADME, organism-based; set-up: dose 20 mg/kg, route oral; conditions: in vivo
SJSA-1 [9] = experiment: Cell cycle arrest in human SJSA1 cells assessed as accumulation at G1 phase after 24 hrs; assay type: functional, cell-based
[10] = AUC in nude mouse xenografted with human SJSA1 cells at 25 mg/kg, po; assay type: ADME, organism-based, SJSA-1; set-up: dose 25 mg/kg, route oral; conditions: in vivo
SJSA-1 [11] = experiment: Antitumor activity against human SJSA1 cells xenografted in nude mouse assessed as tumor growth inhibition at 25 mg/kg, po after 2 weeks relative to control; assay type: functional; conditions: SJSA-1, 336 h, read-out: TGI
SJSA-1 [12] = experiment: Antitumor activity against human SJSA1 cells xenografted in nude mouse assessed as tumor growth inhibition at 12.5 mg/kg, po after 2 weeks relative to control; assay type: functional; conditions: SJSA-1, 336 h, read-out: TGI
SJSA-1 [13] = experiment: Cell cycle arrest in human SJSA1 cells assessed as accumulation at G2/M phase after 24 hrs; assay type: functional, cell-based
SJSA-1 [14] = experiment: Induction of apoptosis in human SJSA1 cells after 48 hrs by annexin V staining assay; assay type: functional, cell-based
[15] = target: E3 ubiquitin-protein ligase Mdm2 (Homo sapiens) (UniProt Q00987); experiment: Inhibition of MDM2 in human SJSA1 cells assessed as induction of p53 stabilization after 20 hrs by Western blot analysis; assay type: cell-based; conditions: SJSA-1
E3 ubiquitin-protein ligase Mdm2 (Homo sapiens), sequence (Q00987 whole entry, looked up): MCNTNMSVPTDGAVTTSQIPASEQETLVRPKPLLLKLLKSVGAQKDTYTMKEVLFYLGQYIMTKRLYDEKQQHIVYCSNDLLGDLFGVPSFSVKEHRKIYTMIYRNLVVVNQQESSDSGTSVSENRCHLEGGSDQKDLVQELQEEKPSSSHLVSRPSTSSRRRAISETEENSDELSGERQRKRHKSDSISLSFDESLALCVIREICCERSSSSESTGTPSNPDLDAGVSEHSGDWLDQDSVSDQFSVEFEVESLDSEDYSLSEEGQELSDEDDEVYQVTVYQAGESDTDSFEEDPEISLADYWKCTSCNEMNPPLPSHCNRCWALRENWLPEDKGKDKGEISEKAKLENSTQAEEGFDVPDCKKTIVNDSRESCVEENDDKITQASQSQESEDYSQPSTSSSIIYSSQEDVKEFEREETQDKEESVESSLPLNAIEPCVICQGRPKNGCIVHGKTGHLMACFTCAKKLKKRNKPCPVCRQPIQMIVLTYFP

[16] = AUC in nude mouse xenografted with human SJSA1 cells at 12.5 mg/kg, po; assay type: ADME, organism-based, SJSA-1; set-up: dose 12.5 mg/kg, route oral; conditions: in vivo
[17] = Clearance in nude mouse at 5 mg/kg, iv; assay type: ADME, organism-based; set-up: dose 5 mg/kg, route intravenous; conditions: in vivo
[18] = AUC in nude mouse xenografted with human SJSA1 cells at 50 mg/kg, po; assay type: ADME, organism-based, SJSA-1; set-up: dose 50 mg/kg, route oral; conditions: in vivo
SJSA-1 [19] = experiment: animal or person; conditions: Mus musculus, SJSA-1, po, 336 h, read-out: TGI
Description: Antitumor activity against human SJSA1 cells xenografted in nude mouse assessed as tumor growth inhibition at 50 mg/kg, po after 2 weeks relative to control

[20] = AUC in nude mouse xenografted with human SJSA1 cells at 100 mg/kg, po; assay type: ADME, organism-based, SJSA-1; set-up: dose 100 mg/kg, route oral; conditions: in vivo
[21] = Half life in nude mouse at 5 mg/kg, iv; assay type: ADME, organism-based; set-up: dose 5 mg/kg, route intravenous; conditions: in vivo
SJSA-1 [22] = experiment: Antitumor activity against human SJSA1 cells xenografted in nude mouse assessed as tumor growth inhibition at 100 mg/kg, po after 2 weeks relative to control; assay type: functional; conditions: SJSA-1, 336 h, read-out: TGI
[23] = Oral bioavailability in C57 mouse at 25 mg/kg; assay type: ADME, organism-based; conditions: in vivo
[24] = Total plasma clearance in C57 mouse at 3.6 mg/kg, iv; assay type: ADME, organism-based; set-up: dose 3.6 mg/kg, route intravenous
[25] = Apparent terminal half-life in C57 mouse at 3.6 mg/kg, iv; assay type: ADME, organism-based; set-up: dose 3.6 mg/kg, route intravenous; conditions: in vivo, read-out: betat1/2(app) (converted)
[26] = Cmax in C57 mouse at 25 mg/kg, po; assay type: ADME, organism-based; set-up: dose 25 mg/kg, route oral; conditions: in vivo
[27] = Cmax in nude mouse at 50 mg/kg, po; assay type: ADME, organism-based; set-up: dose 50 mg/kg, route oral; conditions: in vivo
[28] = Oral bioavailability in nude mouse at 50 mg/kg; assay type: ADME, organism-based; conditions: in vivo

Row | SMILES | IC50 (RKO) | IC50 (HCT-116) | half-life [1] | IC50 (SW480) | IC50 (MDA-MB-435) | bioavailability [2] | Cmax [3] | clearance [4] | CLhep predicted [5] | IC50 (SJSA-1 [6]) | other results
1 | CC(C)(C)C[C@@H]1N[C@@H](C(=O)Nc2ccc(C(=O)O)cn2)[C@H](c2cccc(Cl)c2F)[C@@]1(C#N)c1ccc(Cl)cc1F | 0.4 µM | 0.09 µM | 1.03 h | 13.8 µM | 11.2 µM | 53% | 3000 ng/mL | 29.7 mL/min/kg | 8.9 mL/min/kg | 0.05 µM | 
2 | CC(C)(C)C[C@@H]1N[C@@H](C(=O)NCC[C@H](O)CO)[C@H](c2cccc(Cl)c2F)[C@@]1(C#N)c1ccc(Cl)cc1F |  |  | 0.52 h | 16.8 µM |  |  |  | 51.7 mL/min/kg | 19.9 mL/min/kg | 2.1 µM | bioavailability [7]: 3.6%; Cmax [8]: 300 ng/mL
3 | COc1cc(NC(=O)[C@@H]2N[C@@H](CC(C)(C)C)[C@](C#N)(c3ccc(Cl)cc3F)[C@H]2c2cccc(Cl)c2F)ccc1C(=O)O | 0.14 µM | 0.04 µM | 4.8 h | 18.4 µM | 6.2 µM | 56% | 4100 ng/mL | 21.8 mL/min/kg | 6.6 mL/min/kg | 0.03 µM | 
4 | CC(C)(C)C[C@@H]1N[C@@H](C(=O)Nc2ccc(C(=O)O)c(F)c2)[C@H](c2cccc(Cl)c2F)[C@@]1(C#N)c1ccc(Cl)cc1F | 0.44 µM | 0.14 µM | 4.4 h | 15.9 µM | 11.3 µM | 49% | 3800 ng/mL | 18.4 mL/min/kg | 12.2 mL/min/kg | 0.05 µM | 
5 | CC(C)(C)C[C@@H]1N[C@@H](C(=O)NCC[C@H](O)CO)[C@H](c2cccc(Cl)c2)[C@@]1(C#N)c1ccc(Cl)cc1 | 3 µM | 3.4 µM | 0.44 h | 30 µM | 14.4 µM |  |  | 52.9 mL/min/kg | 18.7 mL/min/kg | 2.1 µM | bioavailability [7]: 6.2%; Cmax [8]: 500 ng/mL
6 | COc1cc(C(=O)O)ccc1NC(=O)[C@@H]1N[C@@H](CC(C)(C)C)[C@](C#N)(c2ccc(Cl)cc2F)[C@H]1c1cccc(Cl)c1F [IDASANUTLIN] | 0.07 µM | 0.01 µM | 1.6 h | 13.3 µM | 9.1 µM | 80% | 9900 ng/mL | 10.3 mL/min/kg | 4.3 mL/min/kg | 0.01 µM | Activity (SJSA-1 [9]): Dose-dependent effect; AUC [10]: 29 µg·h/mL; inhibition in vivo at 25 mg/kg (SJSA-1 [11]): > 100%; inhibition in vivo at 12.5 mg/kg (SJSA-1 [12]): 88%; Activity (SJSA-1 [13]): Dose-dependent effect; Activity (SJSA-1 [14]): Dose-dependent effect; inhibition [15]: Dose-dependent effect; AUC [16]: 23 µg·h/mL
7 | CC(C)(C)C[C@@H]1N[C@@H](C(=O)Nc2cccc(C(=O)O)c2)[C@H](c2cccc(Cl)c2F)[C@@]1(C#N)c1ccc(Cl)cc1F | 1.54 µM | 0.41 µM |  | 15.6 µM | 9.7 µM |  |  |  |  | 0.16 µM | 
8 | CCOc1cc(C(C)(C)C)ccc1C1=N[C@@](C)(c2ccc(Cl)cc2)[C@@](C)(c2ccc(Cl)cc2)N1C(=O)N1CCN(CCCS(C)(=O)=O)CC1 [RO-5045337] |  |  |  |  |  |  |  |  | 5.8 mL/min/kg |  | clearance [17]: 8.6 mL/min/kg; AUC [18]: 200 µg·h/mL; inhibition in vivo at 50 mg/kg (SJSA-1 [19]): 74%; AUC [20]: 380 µg·h/mL; half-life [21]: 2.7 h; inhibition in vivo at 100 mg/kg (SJSA-1 [22]): > 100%
9 | CC(C)(C)C[C@@H]1N[C@@H](C(=O)Nc2ccc3cc(C(=O)O)ccc3c2)[C@H](c2cccc(Cl)c2F)[C@@]1(C#N)c1ccc(Cl)cc1F | 0.28 µM | 0.14 µM | 1.41 h | 12.3 µM | 9.2 µM | 27% | 1700 ng/mL | 24.5 mL/min/kg | 9.4 mL/min/kg | 0.04 µM | 
10 | CC(C)(C)C[C@@H]1N[C@@H](C(=O)Nc2ccn(CC(C)(C)O)n2)[C@H](c2cccc(Cl)c2F)[C@@]1(C#N)c1ccc(Cl)cc1F | 1.42 µM | 1.42 µM |  | 6.28 µM | 8.56 µM |  |  |  | 4.2 mL/min/kg | 1.32 µM | bioavailability [23]: < 1%; clearance [24]: 19.8 mL/min/kg; half-life [25]: 1.48 h; Cmax [26]: 10 ng/mL
11 | CC(C)(C)C[C@@H]1N[C@@H](C(=O)Nc2ccc(C(=O)O)cc2)[C@H](c2cccc(Cl)c2F)[C@@]1(C#N)c1ccc(Cl)cc1F | 0.21 µM | 0.09 µM |  | 13.8 µM | 11.1 µM |  |  |  | 4.9 mL/min/kg | 0.04 µM | clearance [17]: 13.8 mL/min/kg; Cmax [27]: 12000 ng/mL; bioavailability [28]: 83%; half-life [21]: 4.34 h
12 | CC(C)(C)C[C@@H]1N[C@@H](C(=O)Nc2ccc(C(=O)O)cc2F)[C@H](c2cccc(Cl)c2F)[C@@]1(C#N)c1ccc(Cl)cc1F | 0.5 µM | 0.2 µM | 3.1 h | 13.5 µM | 11.7 µM | 100% | 18000 ng/mL | 11.5 mL/min/kg | 7 mL/min/kg | 0.09 µM | 
